We go through 4 substances from US20190111103A1, “NOVEL PEPTIDE OR SALT THEREOF, COMPOSITION FOR ENHANCING PROLIFERATION OF FIBROBLAST CELLS AND COMPOSITION FOR ENHANCING ELASTIN PRODUCTION IN FIBROBLAST CELLS AND CHONDROCYTES CONTAINING THE SAME” (Hayashikane Sangyo Co., Ltd., priority 2017, published 2019).

In assay [1] the test system is normal human skin fibroblast cells. Kind of assay: Proliferation test of normal human skin fibroblast cells. The assay is classed as cell-based. The conditions noted are these: similar experiment with the hydrolysate. On the procedure:
Skin fibroblast cells cultured in a culture flask was seeded in a 96-well plate at 3,500 cells/cm^2 ([…], medium: 10% FBS DMEM). After incubating for 24 hours at 37° C. under 5% CO2 condition, the liquid medium in the wells was removed, replaced with DMEM containing 0.5% FBS and incubated for 24 hours under similar conditions. The liquid medium in the wells was removed and the wells were washed with DPBS, after which DPBS was removed. Solutions of predetermined concentrations of peptide Val-Pro-Gly-Gly (VPGG) and peptide Val-Pro-Gly-Ala (VPGA) were prepared using DMEM containing 0.5% FBS were prepared and 100 μL of the solution was added to each well. Fibroblast cells were incubated for 4 days at 37° C. under 5% CO2 condition and supernatant was recovered. The supernatant recovered was used for a measurement of amount of elastin production in Example 2. DMEM containing 0.5% FBS was added and cells were counted using cell counting kit-8 (10 μL/well) and a cell proliferation rate relative to the cell number obtained from the sample without adding the peptides.

Assay [2] concerns normal human knee joint chondrocytes (NHAc-kn). Nature of the assay: Elastin production test in normal human knee joint chondrocytes (dot blot). The assay is classed as cell-based. As for the experimental part:
Normal human knee joint chondrocytes (NHAc-kn: 1.0×10^5 cells/mL) were seeded in a 24-well plate (900 μL/well, medium: CBM+0.5% FBS) and incubated under humidification condition at 37° C. in 5% CO2 atmosphere for 48 hours. The medium was exchanged and peptide VPGG and peptide VP was added (100 μL/well, final concentration: 0 to 5000 nM) and incubated under humidification condition at 37° C. in 5% CO2 atmosphere for 48 hours. From the cell culture thus obtained, supernatant was collected and dot-blotted onto a PVDF membrane. After blocking with PBST containing 5% skim milk, the membrane was washed with PBST. The membrane was reacted with rabbit anti-elastin antibody as a primary antibody, washed with PBST and reacted with HRP conjugate goat […] as a secondary antibody and washed with PBST. The membrane was reacted with a detection reagent ImmunoStar (FUJIFILM Wako Pure Chemical Corporation) and the amount of elastin production was estimated based on intensities of signals obtained.

For assay [3], the system named is human skin fibroblast cells. Conditions: known from the literature (positive control); cited from earlier work.
The subject of assay [4] is human skin fibroblast cells. Kind of assay: Migration activity test of normal human skin fibroblast cells. The assay is classed as cell-based. Conditions: 20 hours, membrane inserts pore size 8 μm, absorbance at 560 nm. On the procedure:
Effect of peptide Val-Pro-Gly-Gly on a migration activity of fibroblast cells that relates to processes of recovery and regeneration of tissue and wound healing was investigated. To bottom of each well of 24-well plate of CytoSelect (registered trade mark) 24-well Cell Migration Assay Kit (Cell Biotics), DMEM medium (control), 500 μL of peptide Val-Pro-Gly-Gly or peptide Val-Pro-Gly (positive control: see “Elastin—Structure, Function and Pathology”, edited and written by Hiroyuki Ito, Elastin Study Group of Japan (not for sale), p. 124-137, 2008) dissolved in DMEM medium were added. Then, 300 μL of cell suspension of human skin fibroblast cells (P4 to 5) prepared by dispersing the cell in DMEM media (1×10^6 cells/mL) was added inside membrane inserts (pore size: 8 μm). The inserts were inserted in wells and incubated in a cell incubator at 37° C. for 20 hours (in preliminary examination, duration of incubation was also set to 6 hours). […] Cells were stained by adding 400 μL of cell stain liquid and staining for 10 minutes at room temperature. Then the inserts were washed with distilled water, dried and stain was confirmed by optical microscopic observation. […] of reaction mixture was placed in 96-well plate and absorbance at 560 nm was measured using a plate reader.

“Val-Pro-Gly-Ala (VPGA; printed: Val-Pro-Gly-Ala)”: the “cell proliferation rate compared with hydrolysate of elastin from bonitos bulbus arteriosus” value in assay [1] is reported as “higher cell proliferation rate”.

On to Val-Pro, for which the “effect on the elastin production in the chondrocytes” value in assay [2] is listed as “promoting effect”.

With Val-Pro-Gly, the “effect for promoting cell migration” value in assay [3] was “known to have the effect for promoting cell migration”.

For the substance “Val-Pro-Gly-Gly (VPGG; printed: Val-Pro-Gly-Gly)”, the “cell proliferation rate compared with hydrolysate of elastin from bonitos bulbus arteriosus” value in assay [1] is recorded as “higher cell proliferation rate”. Further, the “effect for promoting cell migration compared with peptide Val-Pro-Gly (positive control)” value in assay [4] is “significantly higher effect for promoting cell migration”.
